Assays:
[1] = test system: MCF-7 cells; assay: Cell death by SYTOX Green or EthD-1 and DAPI fluorescence (light irradiation or Co-h); type: cell-based, human; settings: MCF-7, protein 10 μM 24 hours; light 10 mW/cm^2 or Co-h 150 μM over time
Description: MCF-7 cells were seeded at 5×10^5 cells/mL in a 96-well plate (SPL Cell Culture Plate, 96 well (SPL, Cat #30096)), and cultured at 37° C. for 24 hours (overnight). After the culture for 24 hours, the cells were washed with FBS & Phenol red-free media (RPMI), and 100 μL of an FBS-free medium containing the purified protein (final concentration: 10 μM) was added, followed by reaction at 37° C. for 24 hours.
After the reaction for 24 hours, the cells were washed with FBS & Phenol red-free media (RPMI), and then 100 μL of FBS & Phenol red-free media (RPMI) was then added.
After the reaction, 8.1 μL of FMN (final concentration: 150 μM) was added. […]
SYTOX Green or EthD-1 and DAPI fluorescence images were observed using a confocal microscope according to a protein type treated to cells and i) light irradiation time or ii) reaction time with a Co-h substrate, and cell death was confirmed by measuring relative fluorescence intensity at an excitation wavelength of 504 nm and an emission wavelength of 523 nm of SYTOX Green, and an excitation wavelength of 525 nm and an emission wavelength of 590 nm of EthD-1 using a plate reader.
Whether or not Cell death was observed by fluorescence microscopy using SYTOX Green (dead cell-specific dye, green) or EthD-1 (dead cell-specific dye, red) and DAPI (live cell-specific dye, blue).

[2] = test system: singlet oxygen; assay: ROS generation: singlet oxygen measured by decrease of ADPA fluorescence; type: biochemical
Description: A ROS-generating effect of the RLuc8-MS protein was confirmed using 100 μL of buffer (50 mM HEPES-KOH, 24° C., pH 7.4) containing RLuc8-MS protein (final concentration: 10 μM), anthracene-9,10-dipropionic acid (ADPA, Abcam., UK; final concentration: 50 μM) whose fluorescence intensity decreases in the presence of singlet oxygen, flavin mononucleotide (FMN) (final concentration: 150 μM) and a Co-h substrate solution. The rate of decrease in fluorescence intensity was measured at the excitation wavelength of 380 nm and the emission wavelength of 430 nm of ADPA using a plate reader.
a ROS-generating effect of the RLuc8-MS protein was measured using RLuc8-MS (final concentration: 10 μM) and ADPA (final concentration: 50 μM) whose fluorescence intensity decreases in the presence of singlet oxygen.
Here, the active oxygen generation rate of each protein was measured using 100 μL of buffer (50 mM HEPES-KOH, 24° C., pH 7.4) containing FMN (final concentration: 150 μM) and a Co-h substrate solution (final concentration: 150 μM).
The rate of decrease in fluorescence intensity was measured at the excitation wavelength of 370 nm and the emission wavelength of 420 nm of DHE using a plate reader. In addition, the rate of decrease in fluorescence intensity was measured at the excitation wavelength of 380 nm and the emission wavelength of 430 nm of ADPA using a plate reader.
(§1) A ROS generation rate was measured using 100 μL of buffer (50 mM HEPES-KOH, 24° C., pH 7.4) containing the KR protein, RLuc8.6-KR protein (final concentration: 10 μM) and ADPA (final concentration: 50 μM) whose fluorescence intensity decreases in the presence of singlet oxygen.
(§2) A ROS generation rate was measured using 100 μL of buffer (50 mM HEPES-KOH, 24° C., pH 7.4) containing MS, RLuc8-MS (final concentration: 10 μM), ADPA (final concentration: 50 μM) whose fluorescence intensity decreases in the presence of singlet oxygen and FMN (final concentration: 150 μM).
After irradiation with light at 10 mW/cm^2 for 30 minutes, the rate of decrease in fluorescence intensity was measured at the excitation wavelength of 380 nm and the emission wavelength of 430 nm of ADPA using a plate reader.
as §1, with “oxygen and a Co-h substrate solution (final concentration: 150 μM).” for “oxygen.”
as §2, with “oxygen,” for “oxygen and”, “150 μM) and a Co-h substrate solution (final concentration: 150” for “150”
The rate of decreasing fluorescence intensity was measured at the excitation wavelength of 380 nm and the emission wavelength of 430 nm of ADPA using a plate reader. […]

Substance	cell death by staining (SYTOX Green or EthD-1 dead cells, DAPI live cells) [1]	singlet oxygen generation rate after light irradiation ([2]; 10 mW/cm^2, 30 minutes, no substrate, protein 10 μM, ADPA)	singlet oxygen generation rate by Co-h reaction after ROS scavenger treatment ([2]; RLuc8-MS 10 μM, Co-h 150 μM 30 minutes, SOD 800 U/ml, sodium azide 100 mM or D-mannitol 100 mM)	singlet oxygen generation rate after Co-h substrate reaction ([2]; Co-h 150 μM, 30-min reaction, without light irradiation, protein 10 μM, ADPA)	Co-h concentration until which the singlet oxygen generation rate increased, then constantly maintained ([2]; protein 10 μM, ADPA 50 μM, FMN 150 μM, substrate reaction time 5 minutes)	reaction time with Co-h until which the singlet oxygen generation rate increased, then constantly maintained ([2]; protein 10 μM, Co-h 150 μM, ADPA)
MS: first protein MiniSOG, ROS-generating protein (singlet oxygen), expressed from pRSET-MiniSOG, 13 kDa [reference compound]	stained with DAPI	higher singlet oxygen generation rate	lowest when sodium azide was treated			
RLuc8-MS: fusion protein of RLuc8 and MiniSOG without lead peptide, 53 kDa	stained with DAPI			highest singlet oxygen generation rate	150 µM	20 min
